Laboratory results: PubChem BioAssay (NCI)
Where “and” joins values, the source holds several entries; their conditions need not be identical. Identical values can stand only once.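 Where inhibition never reached the appropriate level, the endpoint shown equals the highest concentration tested. Otherwise, values were interpolated linearly from a five-concentration, 48-hour dose response in 96-well plates. GI50: concentration for 50% inhibition of growth. At the TGI there is no net growth.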

What was measured:
Assay in all cases: NCI tumour cell line growth inhibition, 48 h
[1] = test system: A549 NSCLC
[2] = test system: LOX IMVI melanoma
[3] = test system: NCI-H23 lung
[4] = test system: OVCAR-4 ovarian
[5] = test system: SK-MEL-2 melanoma
[6] = test system: SW-620 colon
[7] = test system: UACC-257 melanoma
[8] = test system: K-562 leukemia
[9] = test system: SR leukemia

Row | SMILES | TGI [1] | TGI [2] | TGI [3] | TGI [4] | TGI [5] [µM] | TGI [6] | TGI [7] | TGI [8] | GI50 [2] | GI50 [3] | GI50 [4] | GI50 [5] [µM] | GI50 [9] [µM] | TGI [9] | GI50 [6] | GI50 [7] | GI50 [1] | GI50 [8]
1 | COC(=O)/C(=N\Nc1nc(=S)[nH]n1N)C(C#N)c1ccc(Cl)cc1 (stereo not given) | > 100 µM | > 100 µM | > 100 µM | > 100 µM | > 100 | > 100 µM | > 100 µM |  |  |  |  |  |  |  |  |  |  | 
2 | CCCCCC1CC=CC(NC(=O)OCc2ccccc2)C1/C=C/CCCC1OCCO1 (stereo not given) | > 100 µM | > 100 µM | > 100 µM | > 100 µM | > 100 | > 100 µM | > 100 µM | > 100 µM |  |  |  |  |  |  |  |  |  | 
3 | O=C1C(c2ccccc2)=[N+]([O-])c2cc([N+](=O)[O-])ccc21 | > 100 µM | 28.6 µM | > 100 µM |  | > 100 | > 100 µM | 40.5 µM | 58.5 µM |  |  |  |  |  |  |  |  |  | 
4 | O=C(CCN1CCCC1)Nc1ccc2c(Nc3ccc(Br)cc3)c3ccccc3nc2c1 |  | 2.24 µM | 2.92 µM | 2.92 µM | 3.76 | 2.64 µM | 3.7 µM |  | 1 µM | 1.47 µM | 1.51 µM | 1.98 | 0.288 | 2.58 µM | 1.24 µM | 1.89 µM |  | 
5 | CCOC(=O)Nc1cc2c(c(N)n1)N=C(c1ccccc1)CN2 | 18.1 µM | 32.9 µM |  | > 100 µM |  | > 53 µM | 50.4 µM |  | < 0.0001 µM | < 0.0001 µM |  |  |  | > 100 µM | < 0.0001 µM |  | < 0.0001 µM | 
6 | Cc1cc(=O)n2c(cc3cccccc32)n1 | > 100 µM | > 100 µM | > 100 µM | > 100 µM | > 100 | > 100 µM | > 100 µM | > 100 µM |  |  |  |  |  | > 100 µM |  |  |  | 
7 | Nc1nc(N)c(CCCCc2ccccc2)c(/C=C/c2ccc([N+](=O)[O-])cc2)n1 | 19.3 µM | 13.5 µM | 33.4 µM | 18.4 µM | 10.8 | 5.91 µM | 22.2 µM |  |  |  |  |  |  | 4.85 µM |  |  |  | 
8 | C=C1C(=O)O[C@H]2C3OC3(C)CC/C=C(/C(=O)OC)[C@@H](OC(C)=O)[C@H](OC(=O)C3(C)OC3C)[C@H]12 (stereo not given in full) | 31.6 µM and 17.5 µg/mL | 2.74 µM and 2.7 µM | 7.27 µM and 6.54 µM | 3.63 µM and 4.47 µg/mL |  | 3.47 µM and 1.4 µM and 0.762 µg/mL | 2.96 µM and 1.33 µM | 1.15 µM and 2.25 µM and 1.15 µg/mL | 1.36 µM and 1.24 µM | 1.93 µM and 2.68 µM | 1.88 µM and 2.18 µg/mL |  | 0.248 | 0.664 µM and 1.27 µM | 422 nM and 350 nM and 0.302 µg/mL | 1.42 µM and 0.434 µM | 9.7 µM and 12.5 µM and 5.5 µg/mL | 416 nM and 0.359 µg/mL
9 | CC(O)(c1ccc(OCCC[N+](C)(C)C)cc1)C(C)(O)c1ccc(OCCC[N+](C)(C)C)cc1 (stereo not given) | > 100 µM | > 100 µM | > 100 µM | > 100 µM | > 100 | > 100 µM | > 100 µM | > 100 µM |  |  |  |  |  |  |  |  |  | 
10 | C[C@H]1[C@H](C)CC[C@]2(C(=O)O)CCC3(COC(=O)/C=C/c4ccc(O)cc4)C(=CCC4[C@@]5(C)CC[C@H](O)C(C)(C)C5CC[C@]43C)[C@H]12 (stereo not given in full) | 10.3 µM | 18.3 µM |  | 29.7 µM | 43.2 | 18 µM | 31.5 µM | 20.9 µM |  |  |  |  |  | 64.3 µM |  |  |  | 
11 | C=C(C)C1CC=C(C)C(O)([C@@]2(O)C[C@H](C(=C)C)CC=C2C)C1 (stereo not given in full) | > 100 µM | 26.9 µM | 43.3 µM | 56.2 µM | 35.9 | > 100 µM | 42.8 µM | 49.4 µM |  |  |  |  |  | 58.1 µM |  |  |  | 
12 | CCC1=CCC(P(=O)(c2ccccc2)c2ccccc2)CC1C (stereo not given) | > 100 µM | > 100 µM | > 100 µM | > 100 µM | 83.5 | > 100 µM | > 100 µM | > 100 µM |  |  |  |  |  |  |  |  |  | 
13 | CC[C@@]1(O)C(=O)OCc2c1cc1n(c2=O)Cc2cc3cccc(N)c3nc2-1 | > 100 µM | 37.2 µM | 31.5 µM | > 100 µM | 65.6 |  | > 100 µM | > 100 µM | 4.19 µM | 5.81 µM | 7.57 µM | 29.7 | 0.478 |  |  | > 100 µM | 7.32 µM | > 100 µM
14 | CC1=C(C(=O)Nc2ccccc2C)C(c2ccccc2O)C(C(=O)Nc2ccccc2C)=C(C)N1 | > 100 µM | 44.6 µM | > 100 µM | 54.8 µM | 35.3 | > 100 µM | 49.4 µM | > 100 µM |  |  |  |  |  | 50.8 µM |  |  |  | 
15 | C/C(CC(=O)Nc1cccc([N+](=O)[O-])c1)=N/NC(N)=S | > 100 µM | > 100 µM | > 100 µM |  | > 100 | > 100 µM | > 100 µM | > 100 µM |  |  |  |  |  |  |  |  |  | 
16 | COC(=O)/C=C(C)/C=C/c1c(C)c(C(C)=O)c(C)n1C | > 100 µM | > 100 µM | > 100 µM | > 100 µM |  | > 100 µM | > 100 µM | > 100 µM |  |  |  |  |  |  |  |  |  | 
